One substance from patent publication US8603467B2 (priority 2007, dated 2013) can be followed below.

For assay [1], the system named is 8G9/HRP (binding to virus strain Ck/HK/Yu22/02).
For assay [2], the system named is 8G9 ascites (HI activity for Ck/HKYU22/02 virus). Type of assay: biochemical.

Regarding H T P C D T R D C V L R [G2], the “Competition with avian influenza virus for 8G9/HRP” value in assay [1] is “had competition activity”. Moreover, the HI blocking effect result in assay [2] is recorded as “could clearly block”.
